# Like-named read-outs stand apart in the source and are kept apart here.
# Key:
# [1] = system: Cercospora beticola; Bayer Code CERCBE; test: Leaf spot of sugar beets; type: in vivo, Cercospora beticola on sugar beets (variety HH-88); conditions: 24 h, % disease control rating, one day protectant; for pest or weed control at 25 ppm: read-out: CERCBE 1 DP 25 ppm; for pest or weed control at 75 ppm: read-out: CERCBE 1 DP 75 ppm
# [2] = system: Venturia inaequalis; Bayer Code VENTIN; test: Apple scab; type: in vivo; conditions: 24 h, % disease control rating, one day protectant; for pest or weed control at 25 ppm: read-out: VENTIN 1 DP 25 ppm; for pest or weed control at 75 ppm: read-out: VENTIN 1 DP 75 ppm
# [3] = system: Mycosphaerella graminicola; Anamorph: Septoria tritici; Bayer Code SEPTTR; test: Leaf blotch of wheat, foliar fungicide treatment, one day protectant (1DP) or three day curative (3DC); type: in vivo, Septoria tritici on wheat plants (variety Yuma); conditions: Zymoseptoria tritici
# [4] = 24 h, one day protectant (1DP), percent disease control rating, read-out: SETTTR 1DP 25 ppm
# [5] = 24 h, one day protectant (1DP), percent disease control rating, read-out: SEPTTR 1DP 100 ppm
# [6] = 72 h, three day curative (3DC), percent disease control rating, read-out: SEPTTR 3DC 25 ppm
# [7] = 72 h, three day curative (3DC), percent disease control rating, read-out: SEPTTR 3DC 100 ppm
# [8] = 24 h, one day protectant (1DP), rating of percent disease control, read-out: SETTTR 1DP 25 ppm
# [9] = 24 h, one day protectant (1DP), rating of percent disease control, read-out: SEPTTR 1DP 100 ppm
# [10] = 72 h, three day curative (3DC), rating of percent disease control, read-out: SEPTTR 3DC 25 ppm
# [11] = 72 h, three day curative (3DC), rating of percent disease control, read-out: SEPTTR 3DC 100 ppm
Structure (SMILES),pest or weed control at 25 ppm [1],pest or weed control at 75 ppm [1],pest or weed control at 25 ppm [2],pest or weed control at 75 ppm [2],"pest or weed control at 25 ppm [3, 4]","pest or weed control at 100 ppm [3, 5]","pest or weed control at 25 ppm [3, 6]","pest or weed control at 100 ppm [3, 7]","pest or weed control at 25 ppm [3, 8]","pest or weed control at 100 ppm [3, 9]","pest or weed control at 25 ppm [3, 10]","pest or weed control at 100 ppm [3, 11]"
Nc1nc(OCc2coc(Cc3ccccc3)c2)ncc1F [Compound 69],0 to 25%,26 to 50%,51 to 75%,76 to 100%,76 to 100%,76 to 100%,51 to 75%,76 to 100%,,,,
Nc1nc(OCc2ccc(OCC(F)(F)F)nc2)ncc1F [Compound 79],0 to 25%,26 to 50%,26 to 50%,26 to 50%,76 to 100%,76 to 100%,76 to 100%,76 to 100%,,,,
CC(Oc1ncc(F)c(NCOCc2ccccc2)n1)c1ccc(F)cc1 (centres unmarked) [Compound 121],0 to 25%,0 to 25%,76 to 100%,26 to 50%,51 to 75%,76 to 100%,51 to 75%,76 to 100%,,,,
CCCNC(=S)Nc1nc(OCc2ccn(C)n2)ncc1F [Compound 122],26 to 50%,26 to 50%,76 to 100%,76 to 100%,0 to 25%,51 to 75%,26 to 50%,76 to 100%,,,,
O=[N+]([O-])c1ccccc1SNc1nc(OCc2cc(C(F)(F)F)cc(C(F)(F)F)c2)ncc1F [Compound 125],26 to 50%,26 to 50%,26 to 50%,76 to 100%,26 to 50%,26 to 50%,0 to 25%,0 to 25%,,,,
Fc1ccc(COc2ccc(F)c(NC(=S)Nc3ccccc3F)c2)cc1 [Compound 135],26 to 50%,26 to 50%,51 to 75%,51 to 75%,76 to 100%,76 to 100%,51 to 75%,76 to 100%,,,,
CCCCCCOc1ncc(F)c(N)n1 [Compound 137],0 to 25%,0 to 25%,0 to 25%,76 to 100%,26 to 50%,76 to 100%,26 to 50%,76 to 100%,,,,
Nc1nc(OCc2nc(Cl)ccc2Cl)ncc1F [Compound 141],0 to 25%,0 to 25%,0 to 25%,26 to 50%,0 to 25%,76 to 100%,51 to 75%,26 to 50%,,,,
CNc1nc(OCc2ccc(OC)c(C(F)(F)F)c2)ncc1F [Compound 155],0 to 25%,0 to 25%,26 to 50%,0 to 25%,51 to 75%,76 to 100%,76 to 100%,76 to 100%,,,,
O=C(Nc1nc(OCc2cccc(F)c2)ncc1F)c1ccccc1 [Compound 158],0 to 25%,0 to 25%,51 to 75%,51 to 75%,76 to 100%,76 to 100%,76 to 100%,76 to 100%,,,,
CCCNC(=O)Nc1nc(OCc2cccc(C#N)c2)ncc1F [Compound 163],0 to 25%,0 to 25%,0 to 25%,26 to 50%,0 to 25%,0 to 25%,0 to 25%,0 to 25%,,,,
CN(Cc1ccccc1F)c1nc(OCc2ccc(F)cc2)ncc1F [Compound 164],0 to 25%,0 to 25%,26 to 50%,51 to 75%,26 to 50%,51 to 75%,0 to 25%,51 to 75%,,,,
Fc1ccccc1CNC(=S)Nc1nc(OCc2cccs2)ncc1F [Compound 169],0 to 25%,0 to 25%,51 to 75%,26 to 50%,51 to 75%,76 to 100%,0 to 25%,0 to 25%,,,,
O=C(Nc1nc(OCc2cccc(F)c2)ncc1F)OCc1ccc([N+](=O)[O-])cc1 [Compound 180],0 to 25%,26 to 50%,26 to 50%,0 to 25%,0 to 25%,51 to 75%,0 to 25%,0 to 25%,,,,
COc1ccc(Oc2ncc(F)c(/N=C/N(C)C)n2)cc1 [Compound 187],0 to 25%,26 to 50%,51 to 75%,26 to 50%,,,,,0 to 25%,0 to 25%,0 to 25%,51 to 75%
COc1c(C)cnc(COc2ncc(F)c(N)n2)c1C [Compound 189],26 to 50%,0 to 25%,51 to 75%,51 to 75%,,,,,51 to 75%,76 to 100%,51 to 75%,76 to 100%
CS(=O)(=O)c1ccc(COc2ncc(F)c(N)n2)cc1 [Compound 207],0 to 25%,0 to 25%,0 to 25%,26 to 50%,,,,,0 to 25%,26 to 50%,0 to 25%,0 to 25%
Cn1nc(C(F)(F)F)c(COc2ncc(F)c(N)n2)c1Cl [Compound 211],0 to 25%,0 to 25%,26 to 50%,51 to 75%,,,,,76 to 100%,76 to 100%,76 to 100%,76 to 100%
CC(=O)Nc1nc(OCCNc2ccccc2)ncc1F [Compound 214],51 to 75%,51 to 75%,76 to 100%,76 to 100%,,,,,0 to 25%,0 to 25%,0 to 25%,0 to 25%
O=C1OC(Nc2nc(OCc3ccc(F)cc3)ncc2F)c2ccccc21 (centres unmarked) [Compound 226],0 to 25%,26 to 50%,26 to 50%,76 to 100%,,,,,76 to 100%,76 to 100%,76 to 100%,76 to 100%
CONc1nc(OCc2ccc(F)cc2)ncc1F [Compound 233],0 to 25%,0 to 25%,0 to 25%,51 to 75%,,,,,51 to 75%,76 to 100%,76 to 100%,76 to 100%
CN(C)/C=N/c1nc(OCCNc2ccccc2)ncc1F [Compound 248],0 to 25%,0 to 25%,0 to 25%,51 to 75%,,,,,0 to 25%,76 to 100%,76 to 100%,76 to 100%
Cc1oc(-c2ccccc2)cc1COc1ncc(F)c(N)n1 [Compound 251],0 to 25%,51 to 75%,76 to 100%,76 to 100%,,,,,76 to 100%,76 to 100%,76 to 100%,76 to 100%
CN(C)/C=N/c1nc(OC(=O)c2ccc(Cl)cc2Cl)ncc1F [Compound 260],76 to 100%,51 to 75%,76 to 100%,76 to 100%,,,,,76 to 100%,76 to 100%,76 to 100%,76 to 100%
Nc1nc(OCCN2CCCC2=O)ncc1F [Compound 270],26 to 50%,26 to 50%,0 to 25%,26 to 50%,,,,,0 to 25%,0 to 25%,0 to 25%,0 to 25%
